US5521167A, “Cyclopentanperhydrophenanthren-17β-(hydroxy or alkoxy)-17α-(Aryl or heterocyclyl)-3β-derivatives active on the cardiovascular system, and pharmaceutical compositions containing same” (Sigma-Tau Industrie Farmceutiche Riunite S.p.A., priority 1992, dated 1996)

Key:
Na^+,K^+ -ATPase [1] = target: T1, Na^+,K^+ -ATPase (Canis lupus familiaris, UniProt P50997); assay: inhibition of the activity of the purified Na^+,K^+ -ATPase measured as % of hydrolysis of ^32 P-ATP; format: biochemical
T1 construct: Na^+,K^+ -ATPase receptor purified according to Jorghensen; from tissue
From the text: (§1) To test the affinity for the receptor site of the Na^+,K^+ -ATPase and the agonist or antagonist activity on the enzyme, the following tests were used: a) displacement of the specific ^3 H-ouabain binding from the Na^+,K^+ -ATPase receptor purified according to Jorghensen (Jorghensen P., BBA, 1974, 356, 36) and Erdmann ( Erdmann E. et al., Arzneim. Forsh., 1984, 34, 1314); b) inhibition of the activity of the purified Na^+,K^+ -ATPase measured as % of hydrolysis of ^32 P-ATP in presence and in absence of the tested compound (Doucet A. et al., Am. J. Physiol., 1986, 251, F851). The ability of these compounds to lower blood pressure in adult hypertensive MHS rats was tested according to the following scheme: systolic blood pressure (SBP) and heart rate (HR) were measured by an indirect tail-cuff method in three-month old hypertensive MHS rats before starting with the treatment (basal values). The rats were then subdivided in two groups of 7 animals each, one receiving the compound and the other, the control group, receiving only the vehicle. The compound was orally daily given, suspended in Methocel 0.5% (w/v), for ten days. SBP and HR were measured daily 6 and 24 hours after the treatment.

Na^+,K^+ -ATPase [2] = target: T1, Na^+,K^+ -ATPase; assay: displacement of the specific ^3 H-ouabain binding from the purified Na^+,K^+ -ATPase receptor
From the text: as §1

hypertensive MHS rats = assay: systolic blood pressure and heart rate in hypertensive MHS rats (indirect tail-cuff, ten-day oral treatment); format: in vivo, rat; settings: 20 mg/Kg/os daily for ten days, in METHOCEL 0.5% w/v, 7 rats; for SYSTOLIC BLOOD PRESSURE FALL IN SPONTANEOUS HYPERTENSIVE RATS (MHS), SBP: controls 171 +/- 4.5; for HR: controls 384 +/- 11.0
From the text: as §1
After ten-day treatment, washout was started for at least two days, to verify whether the treatment maintained SBP low or reestablished the basal values.

[3] = ^3 H-ouabain displacement, purified Na^+,K^+ -ATPase, read-out: Binding ^3 H-Ouab. Displacement log IC50 (converted)
[4] = hydrolysis of ^32 P-ATP, purified Na^+,K^+ -ATPase, read-out: Inhibitory Activity log IC50 (converted)

Structure (SMILES)	IC50 (Na^+,K^+ -ATPase [1])	IC50 (Na^+,K^+ -ATPase [2]; [3])	IC50 (Na^+,K^+ -ATPase [1]; [4])	IC50 (Na^+,K^+ -ATPase [2])	SYSTOLIC BLOOD PRESSURE FALL IN SPONTANEOUS HYPERTENSIVE RATS (MHS), SBP (hypertensive MHS rats)	HR (hypertensive MHS rats)
C[C@]12CC[C@H](OCCN3CCCC3)C[C@H]1CC[C@@H]1[C@@H]2CC[C@@]2(C)[C@H]1CC[C@@]2(OCCN1CCCC1)c1ccoc1 [Comp. I-ad, 3β17β-Bis(2-(1-pyrrolidinyl)ethoxy)-17α-(3-furyl)-5β-androstane]	3160 nM	398 nM	–	–	–	–
C[C@]12CC[C@H](OCCCN)C[C@@H]1CC[C@@H]1[C@@H]2CC[C@@]2(C)[C@H]1CC[C@@]2(O)c1ccoc1 [Comp. I-ai, 3β-(3-Aminopropoxy)-17α-(3-furyl)-androstan-17β-ol]	–	–	1580 nM	251 nM	–	–
C[C@]12CC[C@H](OCCN3CCCC3)C[C@@H]1CC[C@@H]1[C@@H]2CC[C@@]2(C)[C@H]1CC[C@@]2(OCCN1CCCC1)c1ccoc1 [Comp. I-ak, 3β, 17β-Bis(2-(1-pyrrolidinyl)ethoxy)-17α-(3-furyl)-androstane]	5010 nM	398 nM	–	–	–	–
C[C@]12CC[C@H](OCCOCCN3CCCC3)C[C@@H]1CC[C@@H]1[C@@H]2CC[C@@]2(C)[C@H]1CC[C@@]2(O)c1ccoc1 [Comp. I-al, 3β-(2-(2(1-Pyrrolidinyl)ethoxyy)ethoxy)-17α-(3-furyl)-androstan-17β-ol]	–	501 nM	1580 nM	–	–	–
C[C@]12CC[C@H](OCCOCCN3CCCC3)C[C@@H]1CC[C@@H]1[C@@H]2CC[C@@]2(C)[C@H]1CC[C@@]2(OCCN)c1ccoc1 [Comp. I-am, 3β-(2-(2-(1-Pyrrolidinyl)ethoxy)ethoxy)-17β-(2-aminoethoxy)-17α-(3-furyl)-androstane]	–	200 nM	1580 nM	–	153 +/- 5.1 mm Hg	378 +/- 8.5 beats/min.
C[C@]12CC[C@H](OCCOCCN3CCCC3)C[C@@H]1CC[C@@H]1[C@@H]2CC[C@@]2(C)[C@H]1CC[C@@]2(OCCN1CCCC1)c1ccoc1 [Comp. I-an, 3β-(2-(2-(1-Pyrrolidinyl)ethoxy)ethoxy)-17β-(2-(1-pyrrolidinyl)ethoxy)-17α-(3-furyl)-androstane]	–	–	–	–	152 +/- 5.0 mm Hg	375 +/- 9.0 beats/min.
C[C@]12CC[C@H](OCCOCCN3CCCC3)C=C1CC[C@@H]1[C@@H]2CC[C@@]2(C)[C@H]1CC[C@@]2(OCCN)c1ccoc1 [Comp. I-aq, 3β-(2-(2-(1-Pyrrolidinyl)ethoxy)ethoxy)-17α-(2-aminoethoxy)-17α-(3-furyl)-androst-4-ene]	2510 nM	316 nM	–	–	148 +/- 3.2 mm Hg	388 +/- 12.0 beats/min.
C[C@]12CC[C@H](OCCOCCN3CCCC3)CC1=CC[C@@H]1[C@@H]2CC[C@@]2(C)[C@H]1CC[C@@]2(OCCN1CCCC1)c1ccoc1 [Comp. I-ay, 3β-(2-(2-(1-pyrrolidinyl)ethoxy)ethoxy)-17β-(2-(1-pyrrolidinyl)ethoxy)-17α-(3furyl)-androst-5-ene]	–	398 nM	1580 nM	–	149 +/- 4.8 mm Hg	395 +/- 10.0 beats/min.
C[C@]12CC[C@H](SCCOCCN3CCCC3)C[C@@H]1CC[C@@H]1[C@@H]2CC[C@@]2(C)[C@H]1CC[C@@]2(OCCN1CCCC1)c1ccoc1 [Comp. I-ca, 3β-(2-(2-(1-Pyrrolidinyl)ethoxy)ethylthio)-17β-(2-(1-pyrrolidinyl)ethoxy)-17α-(3-furyl)-androstane]	–	316 nM	2000 nM	–	–	–
C[C@]12CC[C@H](O)C[C@H]1CC[C@@H]1[C@@H]2CC[C@]2(C)[C@@H](c3ccoc3)CC[C@]12O [Ref. comp., 17β-(3-furyl)-5β-androstane-3β, 14β-diol, reference compound]	2000 nM	–	–	501 nM	173 +/- 4.0 mm Hg	380 +/- 10.0 beats/min.
